Measured values taken from US11447472B2, “Polymorophs of 5-aza-4′-thio-2′-deoxycytidine” (Southern Research Institute, priority 2020, dated 2022).
Values joined by “and” are separate entries in the source; they are usually repeats but may differ in a detail not shown here. Identical values can stand only once. Like-named read-outs stand apart in the source and are kept apart here.

Columns and labels:
[1] = Dissolution rate (IDR) at pH 1.2, 6.5 and 5.0; assay type: physicochemical
K562 cell lines = experiment: CellTiter-Glo cell viability, K562; assay type: cell-based; details: K562, 3 days, FIG. 23
Experimental: (§1) K562 and HL-60 cell lines were cultured and maintained in RPMI (10% FBS, 1% Penicillin-Streptomycin) medium at 37° C., 95% Air, and 5% CO2. K562 and HL-60 cell lines were each seeded in 96-well plates at a density of 3000 cells/well (90 μl). Form A and SM were treated in each well at a final concentration of 10 μM by treating 10 μl using 3-fold dilution. The cells were incubated for 3 days at 37° C., 95% Air, and 5% CO2. 96-well plates were placed in room temperature for 30 minutes in order to equilibrate. Then, 100 μl of CellTiter-Glo® Luminescent Cell Viability Assay Reagent was added in 96-wells and incubated for 10 minutes in room temperature. Luminescence was measured using Luminometer and IC50 value was analyzed using GraphPrism.

HL-60 cell lines = experiment: CellTiter-Glo cell viability, HL-60; assay type: cell-based; details: HL-60, 3 days, FIG. 24
Experimental: as §1

[2] = Pharmacokinetics of capsules in male SD rats; details: 2 mg/kg; for AUC(0-inf) / AUC(0-t) / Cmax / MRT inf / half-life / Tmax: po; for AUC(0-inf): AUCInf; for AUC(0-t): AUClast; for MRT inf: MRTInf_obs
tumor = experiment: Tumor size (in vivo luciferase activity) in female NOD-SCID mice; details: for tumor size (in vivo luciferase activity): 5 days on, 2 days rest, 9 days rest, repeated, FIG. 17
Experimental: Aza-T-dCyd starting material (SM) was administered to […] female NOD-SCID mice splitting into four groups. Group 1 was a vehicle control group. In group 2, 2.0 mg/kg of aza-T-dCyd starting material (SM) was administered once a day, and in group 3, 1.0 mg/kg of aza-T-dCyd starting material (SM) was administered twice a day. In groups 2 and 3, aza-T-dCyd starting material (SM) in the above amounts was administered for 5 days followed by 2 days as a rest period, and was administered again for another 5 days followed by 9 days as another rest period. This cycle was repeated. In group 4, 1.0 mg/kg of aza-T-dCyd starting material (SM) was administered once a day for five days followed by 2 days as a rest period, and this cycle was repeated.

[3] = system: blood cancer cells (Mv4-11); experiment: IC50 in blood cancer cells (Mv4-11) at different exposure times; assay type: cell-based; details: Homo sapiens
Experimental: Furthermore, the half maximal inhibitory concentration (IC50) was measured at 1 hr, 2 hr, and 4 hr after the blood cancer cells (Mv4-11) were treated with aza-T-dCyd starting material (SM). […] In addition, the measured IC50 at 4 hr was about 80 nM, which was much higher than the expected value of 20 nM. Therefore, it was confirmed that the efficiency of aza-T-dCyd starting material (SM) greatly decreases as the exposure time of the compound to the cells increases.

[4] = 0.25 h, capsule (8:92 w/w with microcrystalline cellulose), male SD rat
[5] = 0.25 h, capsule, mean of two male SD rats
[6] = 0.5 h, capsule, mean of two male SD rats
[7] = capsule, mean of two male SD rats
[8] = male, SD, rat, plasma, Mean, capsule, mean of two male SD rats
[9] = male, SD, rat, plasma, individual rat, capsule, male SD rat

## Nc1ncn([C@H]2C[C@H](O)[C@@H](CO)S2)c(=O)n1 [Form A, 5-Aza-4′-thio-2′-deoxycytidine]
[1]; FaSSIF, pH 6.5
  IDR: 2.2 ± 0.06 mg/mL/Cm^2/min
[1]; FeSSIF, pH 5.0
  IDR: 4.6 ± 0.07 mg/mL/Cm^2/min
[1]; SGF, pH 1.2
  IDR: 7.4 ± 0.21 mg/mL/Cm^2/min
K562 cell lines
  IC50 value lower than SM: about 5%
HL-60 cell lines
  IC50 value lower than SM: about 5%
[2]; [4]
  Concentration (plasma), individual rat: 77.2 ng/mL and 511 ng/mL
[2]; [5]
  Concentration (plasma), Mean: 294 ng/mL
[2]; 0.5 h, capsule, male SD rat
  Concentration (plasma), individual rat: 254 ng/mL and 721 ng/mL
[2]; [6]
  Concentration (plasma), Mean: 488 ng/mL
[2]; 1 h, capsule, male SD rat
  Concentration (plasma), individual rat: 815 ng/mL and 912 ng/mL
[2]; 1 h, capsule, mean of two male SD rats
  Concentration (plasma), Mean: 864 ng/mL
[2]; 2 h, capsule, male SD rat
  Concentration (plasma), individual rat: 677 ng/mL and 645 ng/mL
[2]; 2 h, capsule, mean of two male SD rats
  Concentration (plasma), Mean: 661 ng/mL
[2]; 4 h, capsule, male SD rat
  Concentration (plasma), individual rat: 556 ng/mL and 420 ng/mL
[2]; 4 h, capsule, mean of two male SD rats
  Concentration (plasma), Mean: 488 ng/mL
[2]; 6 h, capsule, male SD rat
  Concentration (plasma), individual rat: 397 ng/mL and 307 ng/mL
[2]; 6 h, capsule, mean of two male SD rats
  Concentration (plasma), Mean: 352 ng/mL
[2]; 8 h, capsule, male SD rat
  Concentration (plasma), individual rat: 261 ng/mL and 210 ng/mL
[2]; 8 h, capsule, mean of two male SD rats
  Concentration (plasma), Mean: 236 ng/mL
[2]; 24 h, capsule, male SD rat
  Concentration (plasma), individual rat: 6.71 ng/mL and 4.29 ng/mL
[2]; 24 h, capsule, mean of two male SD rats
  Concentration (plasma), Mean: 5.50 ng/mL
[2]; capsule, male SD rat
  AUCInf, individual rat: 6079 ng·h/mL and 5446 ng·h/mL
  AUC_%Extrap_obs, individual rat: 0.485% and 0.329%
  AUClast, individual rat: 6050 ng·h/mL and 5428 ng·h/mL
  AUClast/D, individual rat: 3020 ng·h/mL per mg/kg and 2710 ng·h/mL per mg/kg
  Cmax, individual rat: 815 ng/mL and 912 ng/mL
  MRTInf_obs, individual rat: 5.40 h and 4.83 h
  T1/2, individual rat: 3.05 h and 2.89 h
  Tmax, individual rat: 1.00 h
[2]; capsule, male SD rats
  AUC values higher than SM: about 30%
[2]; capsule, male SD rats, higher than SM
  Cmax value relative to SM: about 1.3 times
[2]; [7]
  AUCInf, Mean: 5763 ng·h/mL
  AUC_%Extrap_obs, Mean: 0.407%
  AUClast, Mean: 5739 ng·h/mL
  AUClast/D, Mean: 2870 ng·h/mL per mg/kg
  Cmax, Mean: 864 ng/mL
  MRTInf_obs, Mean: 5.11 h
  T1/2, Mean: 2.97 h
  Tmax, Mean: 1.00 h

## Nc1ncn([C@H]2C[C@H](O)[C@@H](CO)S2)c(=O)n1 [SM, 5-Aza-4′-thio-2′-deoxycytidine]
tumor; Group 2 (2.0 mg/kg, once a day) compared with 'Group 1 (1.0 mg/kg, twice a day)', FIG. 18
  tumor size on day 43: significantly smaller
tumor; Group 2: 2.0 mg/kg once a day
  tumor size (in vivo luciferase activity): most greatly suppressed
tumor; Group 3: 1.0 mg/kg twice a day
  tumor size (in vivo luciferase activity): sharply increased after 40 days
[3]; Mv4-11, 1 hr after treatment, read-out: measured IC50 at 1 hr
  IC50: ~160 nM
[3]; Mv4-11, 2 hr after treatment, read-out: measured IC50 at 2 hr
  IC50: ~120 nM
[3]; Mv4-11, 4 hr after treatment, read-out: measured IC50 at 4 hr
  IC50: ~80 nM
[3]; Mv4-11, expected from the IC50 measured at 1 hr, read-out: expected IC50 at 2 hr
  IC50: 80 nM
[3]; Mv4-11, expected from the IC50 measured at 1 hr, read-out: expected IC50 at 4 hr
  IC50: 20 nM
[2]; [4]
  Concentration (plasma), individual rat: 29.1 ng/mL and 64.9 ng/mL
[2]; [5]
  Concentration (plasma), Mean: 47.0 ng/mL
[2]; 0.5 h, capsule, male SD rat
  Concentration (plasma), individual rat: 123 ng/mL and 243 ng/mL
[2]; [6]
  Concentration (plasma), Mean: 183 ng/mL
[2]; 1 h, capsule, male SD rat
  Concentration (plasma), individual rat: 321 ng/mL and 610 ng/mL
[2]; 2 h, capsule, male SD rat
  Concentration (plasma), individual rat: 613 ng/mL
[2]; 4 h, capsule, male SD rat
  Concentration (plasma), individual rat: 442 ng/mL
[2]; 6 h, capsule, male SD rat
  Concentration (plasma), individual rat: 283 ng/mL
[2]; 8 h, capsule, male SD rat
  Concentration (plasma), individual rat: 199 ng/mL
[2]; 24 h, capsule, male SD rat
  Concentration (plasma), individual rat: 2.65 ng/mL and 4.48 ng/mL
[2]; capsule, male SD rat
  AUCInf, individual rat: 4780 ng·h/mL
  AUC_%Extrap_obs, individual rat: 0.255% and 0.402%
  AUClast, individual rat: 4761 ng·h/mL
  AUClast/D, individual rat: 2030 ng·h/mL per mg/kg and 2380 ng·h/mL per mg/kg
  Cmax, individual rat: 613 ng/mL
  MRTInf_obs, individual rat: 5.23 h
  T1/2, individual rat: 2.98 h
[2]; [7]
  AUC_%Extrap_obs, Mean: 0.329%
  AUClast/D, Mean: 2210 ng·h/mL per mg/kg
[2]; male, SD, rat, plasma, oral, Concentration (plasma), Mean, 1 h, capsule, mean of two male SD rats
  concentration at 1 h: 466 ng/mL
[2]; male, SD, rat, plasma, oral, Concentration (plasma), Mean, 2 h, capsule, mean of two male SD rats
  concentration at 2 h: 657 ng/mL
[2]; male, SD, rat, plasma, oral, Concentration (plasma), Mean, 4 h, capsule, mean of two male SD rats
  concentration at 4 h: 415 ng/mL
[2]; male, SD, rat, plasma, oral, Concentration (plasma), Mean, 6 h, capsule, mean of two male SD rats
  concentration at 6 h: 272 ng/mL
[2]; male, SD, rat, plasma, oral, Concentration (plasma), Mean, 8 h, capsule, mean of two male SD rats
  concentration at 8 h: 178 ng/mL
[2]; male, SD, rat, plasma, oral, Concentration (plasma), Mean, 24 h, capsule, mean of two male SD rats
  concentration at 24 h: 3.57 ng/mL
[2]; male, SD, rat, plasma, oral, Concentration (plasma), individual rat, 2 h, capsule, male SD rat
  concentration at 2 h: 700 ng/mL
[2]; male, SD, rat, plasma, oral, Concentration (plasma), individual rat, 4 h, capsule, male SD rat
  concentration at 4 h: 387 ng/mL
[2]; male, SD, rat, plasma, oral, Concentration (plasma), individual rat, 6 h, capsule, male SD rat
  concentration at 6 h: 261 ng/mL
[2]; male, SD, rat, plasma, oral, Concentration (plasma), individual rat, 8 h, capsule, male SD rat
  concentration at 8 h: 156 ng/mL
[2]; [8]
  AUC(0-inf): 4430 ng·h/mL
  AUC(0-t): 4410 ng·h/mL
  Cmax: 657 ng/mL
  MRT inf: 5.15 h
  Tmax: 2 h
[2]; [9]
  AUC(0-inf): 4080 ng·h/mL
  AUC(0-t): 4060 ng·h/mL
  Cmax: 700 ng/mL
  MRT inf: 5.06 h
  Tmax: 2 h
[2]; male, SD, rat, plasma, T1/2, Mean, capsule, mean of two male SD rats
  half-life: 2.85 h
[2]; male, SD, rat, plasma, T1/2, individual rat, capsule, male SD rat
  half-life: 2.72 h
